Measured values reported in patent publication US6779468B1, “Method and pharmaceutical composition for iron delivery in hemodialysis and peritoneal dialysis patients” (priority 1997, dated 2004).
Where “and” joins values, the source holds several entries; their conditions need not be identical. Equal entries are not always repeated. Entries after “also recorded” stand apart in the source; their conditions may differ.

Key:
[1] = literature reports; cited from earlier work
[2] = Phase I/II clinical study of dialysate iron in maintenance hemodialysis patients; type: in vivo, human; conditions: for reticulocyte hemoglobin (Retic-Hgb): month 2
Experimental: All subjects in the study were receiving maintenance hemodialysis for end stage kidney failure, and requiring erythropoietin and intravenous iron to maintain hemoglobin in the 10-12 gm/dl range. After obtaining an informed consent, patients were enrolled and oral iron was discontinued. All patients received maintenance intravenous iron (50-100 mg every 1-2 weeks) during a 4 week long pre-treatment phase. The last two weeks of this pre-treatment period were used to establish the “Baseline” serum iron and hematological parameters. In the Treatment Phase, ten patients were dialyzed with iron containing dialysate (Dialysate-Fe group) for a period of 4 months. […] Eleven control patients (IV-Fe Group) continued to receive 50-200 mg iron intravenously every 1-2 weeks, for the entire study period of 6.5 months.
The initial doses were 50 mg elemental iron weekly.
Increased availability of iron to marrow cells may improve responsiveness to erythropoietin, thereby raising the hemoglobin and hematocrit. Hemoglobin and hematocrit were monitored every week, and in the event of improved erythropoiesis, the doses of erythropoietin were reduced by 10% every two weeks or as needed, to maintain a stable hemoglobin.
According to the National Kidney Foundation-Dialysis Outcomes Quality Initiative (NKF-DOQI) recommendations, most hemodialysis patients should be administered intravenous iron with every dialysis session or every 1-2 weeks (maintenance therapy). […] This was the basis why the control group was maintained on regular doses of intravenous iron, while oral iron was discontinued. This being the standard of care, the subjects on maintenance intravenous iron (IV-Fe Group) served as the control against the experimental group receiving dialysate iron therapy (Dialysate-Fe Group).
A random number generator was used to generate a list of 24 numbers. Odd and even numbers were assigned A or B designation respectively. A list of 23 patients was created based on the order in which consent was obtained for participation in the study. Patients were assigned to groups A or B based on their order in the list.
When a relative iron deficiency was suspected bolus doses of 100-200 mg iron were administered intravenously with each dialysis, over 1-5 consecutive dialysis sessions.
Based on the NKF-DOQI guidelines, patients in IV-Fe group were prescribed maintenance amount of intravenous iron from 25 to 100 mg/week. When a relative iron deficiency was suspected, bolus doses of 100-200 mg iron were administered intravenously with each dialysis, over 5-10 consecutive dialysis sessions.
Except for plotting of individual patient variables over time, the iron study data has been summarized prior to analysis. Descriptive analysis was performed. Most of the analysis presented here, uses the data averaged over four or six/seven week intervals. A four week interval corresponds to the length of time each dose level was used during the dose escalation phase of the study. […] (See Figures 4-21)
The baseline period, labeled month 0, included data for the four weeks immediately prior to the start of the intervention. (There was some data available for some or all the fifth week prior to the intervention, but data from this week is omitted from the formal data analysis.)
Weeks 1 to 4, when the dialysate dose of 2 μg/dl was employed, are labeled month 1, weeks 5 to 8 labeled month 2, weeks 9 to 12 labeled ‘month 3’, weeks 13 to 16 labeled month 4, weeks 17 to 20 labeled month 5, and weeks 21 to 26 (or 27) are labeled month 6.

[3] = baseline, before treatment phase

For O=P([O-])([O-])OP(=O)([O-])[O-].[Sn+2].[Sn+2] [stannous pyrophosphate], the “hypocalcemia / toxic effects” value [1] is given as “hypocalcemia and immediate toxic effects”.

With Ferric pyrophosphate the “serum Fe and transferrin saturation” value (at 30 minutes of peritoneal dialysis, dialysate iron 500 μg/dl, day 21, P<0.03) was “significant increase”, the “time for mean serum iron and transferrin saturation to increase into the normal range” value (iron deficient rabbits, dialysate iron 500 μg/dl, day 21) was ≤ 30 min and the “duration of increase in serum iron and transferrin saturation” value (peritoneal dialysis for a total of 2 hours) was “sustained for the duration of the experiment”. For the same compound, the “TIBC adjusted for the baseline values, versus IV-Fe group” value ([2]; at 6 months, p<0.05) was “significantly higher”, the “serum ferritin (mean±S.D.)” value [2, 3] was 154 ± 120 µg/L and the “total iron binding capacity (TIBC, mean±S.D.)” value [2, 3] was 222.3 ± 43.8 µg/dL. The hematocrit cycling ([2]; dialysate route during every dialysis session) was “abolishes hematocrit cycling”, the “reticulocyte hemoglobin (Retic-Hgb)” value [2] was 28.4 ± 0.9 pg and the “average weekly dose of intravenous iron” value ([2]; month 6) was 8.9 mg. The “patients requiring additional intravenous iron supplements” value ([2]; month 6) was 2 out of the 10, the “serum ferritin (mean±S.D.)” value ([2]; month 6) was 154 ± 120 µg/L and the maintenance of hemoglobin ([2]; over a period of 6 months) was “maintains hemoglobin without an increase in erythropoietin requirement”. The “patients in whom iron balance is maintained without supplemental oral or intravenous iron” value ([2]; over a period of 6 months) was “approximately 80%”, the “reduction of requirements for intravenous iron” value ([2]; over a period of 6 months) was “about 80%” and the “average weekly dose of intravenous iron” value ([2]; pretreatment period (month 0, baseline), all patients on maintenance intravenous iron) was 68.7 mg. The “requirement for intravenous iron” value ([2]; p≦0.002 with 8-12 μg/dl dialysate iron) was “significantly reduced; also recorded: decline in intravenous iron requirement”.

In the case of iron dextran [reference compound], the “serum ferritin (mean±S.D.)” value [2, 3] is reported as 261 ± 211 µg/L, the “total iron binding capacity (TIBC, mean±S.D.)” value [2, 3] is reported as 192.7 ± 48.1 µg/dL and the “reticulocyte hemoglobin (Retic-Hgb)” value [2] is reported as 27.0 ± 1.0 pg. For the same compound, the “average weekly dose of intravenous iron” value ([2]; month 6) was 56.2 mg, the “serum ferritin (mean±S.D.)” value ([2]; month 6) was 261 ± 211 µg/L and the “average weekly dose of intravenous iron” value ([2]; pretreatment period (month 0, baseline), all patients on maintenance intravenous iron, listed as IV-Fe) was 59.6 mg and 68.7 mg.
